Experimental data from patent US6156700A, “3-(1,2-Benzisothiazol- and isoxazol-5-yl)-2,4(1H,3H)-pyrimidinedione or thione and 3-(1,2-benzisothiazol- and isoxazol-5-yl)-4(3H)-pyrimidinone or thione herbicidal agents” (American Cyanmid Company, priority 1998, dated 2000).
“And” between values parts separate entries of the source, which are not always exact repeats. Equal values may be shown once.

What was measured:
[1] = system: ABUTH; assay: Preemergence herbicidal evaluation; format: in vivo; design: scale not given here
[2] = system: AMBEL; assay: Preemergence herbicidal evaluation; format: in vivo; design: scale not given here
[3] = system: CASOB; assay: Preemergence herbicidal evaluation; format: in vivo; design: scale not given here
[4] = system: CHEAL; assay: Preemergence herbicidal evaluation; format: in vivo; design: scale not given here
[5] = system: ECHCG; assay: Preemergence herbicidal evaluation; format: in vivo; design: scale not given here
[6] = system: GALAP; assay: Preemergence herbicidal evaluation; format: in vivo; design: scale not given here
[7] = system: GLXMAW; assay: Preemergence herbicidal evaluation; format: in vivo; design: scale not given here
[8] = system: IPOSS; assay: Preemergence herbicidal evaluation; format: in vivo; design: scale not given here
[9] = system: SETVI; assay: Preemergence herbicidal evaluation; format: in vivo; design: scale not given here
[10] = system: TRZAWR; assay: Preemergence herbicidal evaluation; format: in vivo; design: scale not given here
[11] = system: ZEAMX; assay: Preemergence herbicidal evaluation; format: in vivo; design: scale not given here
[12] = system: GLXMA; assay: Preemergence herbicidal evaluation; format: in vivo
Description: The preemergence and postemergence herbicidal properties of certain compounds of the present invention are compared with certain compounds disclosed in U.S. Pat. Nos. 5,484,763 and 5,523,278. The evaluations are performed as described in Examples 185 and 186. Data in Tables V and VI are reported by the compound number given in Example 185 for the compounds of this invention or by comparative compound letter for the compounds disclosed in U.S. Pat. Nos. 5,484,763 and 5,523,278.

[13] = system: ORYSAT; assay: Preemergence herbicidal evaluation; format: in vivo, Oryza sativa; design: scale not given here
[14] = system: ABUTH; assay: Postemergence herbicidal evaluation; format: in vivo

In the case of `O=C1C2=C(CCCC2)C(=O)N1c1ccc2snc(-c3ccccc3)c2c1` [A], the herbicidal effect rating ([1]; 0.0156-0.0160 kg/ha) is reported as 0.0, the herbicidal effect rating ([1]; 0.0313-0.0320 kg/ha) is reported as 0.0 and the herbicidal effect rating ([1]; 0.0620-0.0630 kg/ha) is reported as 0.0. For the same compound, the herbicidal effect rating ([1]; 0.1250 kg/ha) was 5.0, the herbicidal effect rating ([1]; 0.2500 kg/ha) was 6.0 and the herbicidal effect rating ([1]; 0.5000 kg/ha) was 7.0. It also gave a herbicidal effect rating ([2]; 0.0156-0.0160 kg/ha) of 0.0, a herbicidal effect rating ([2]; 0.0620-0.0630 kg/ha) of 2.0 and a herbicidal effect rating ([2]; 0.1250 kg/ha) of 3.5. For the same compound, the herbicidal effect rating ([2]; 0.2500 kg/ha) was 6.0, the herbicidal effect rating ([2]; 0.5000 kg/ha) was 5.0 and the herbicidal effect rating ([3]; 0.0156-0.0160 kg/ha) was 0.0. The herbicidal effect rating ([3]; 0.0313-0.0320 kg/ha) was 0.0, the herbicidal effect rating ([3]; 0.0620-0.0630 kg/ha) was 0.0 and the herbicidal effect rating ([3]; 0.1250 kg/ha) was 1.5. The herbicidal effect rating ([3]; 0.2500 kg/ha) was 2.0, the herbicidal effect rating ([3]; 0.5000 kg/ha) was 2.0 and the herbicidal effect rating ([4]; 0.0156-0.0160 kg/ha) was 2.0. The herbicidal effect rating ([4]; 0.0620-0.0630 kg/ha) was 2.5, the herbicidal effect rating ([4]; 0.1250 kg/ha) was 5.0 and the herbicidal effect rating ([4]; 0.2500 kg/ha) was 7.0. It also gave a herbicidal effect rating ([4]; 0.5000 kg/ha) of 9.0, a herbicidal effect rating ([5]; 0.0156-0.0160 kg/ha) of 0.0 and a herbicidal effect rating ([5]; 0.0313-0.0320 kg/ha) of 0.0. For the same compound, the herbicidal effect rating ([5]; 0.0620-0.0630 kg/ha) was 0.0, the herbicidal effect rating ([5]; 0.1250 kg/ha) was 0.0 and the herbicidal effect rating ([5]; 0.2500 kg/ha) was 0.0. For the same compound, the herbicidal effect rating ([5]; 0.5000 kg/ha) was 0.0, the herbicidal effect rating ([6]; 0.0313-0.0320 kg/ha) was 5.5 and the herbicidal effect rating ([6]; 0.0620-0.0630 kg/ha) was 4.5. It also gave a herbicidal effect rating ([6]; 0.1250 kg/ha) of 7.0, a herbicidal effect rating ([6]; 0.2500 kg/ha) of 9.0 and a herbicidal effect rating ([6]; 0.5000 kg/ha) of 9.0. For the same compound, the herbicidal effect rating ([7]; 0.0313-0.0320 kg/ha) was 0.0, the herbicidal effect rating ([7]; 0.0620-0.0630 kg/ha) was 0.0 and the herbicidal effect rating ([7]; 0.1250 kg/ha) was 0.0. It also gave a herbicidal effect rating ([7]; 0.2500 kg/ha) of 0.0, a herbicidal effect rating ([7]; 0.5000 kg/ha) of 0.0 and a herbicidal effect rating ([8]; 0.0156-0.0160 kg/ha) of 0.0. It also gave a herbicidal effect rating ([8]; 0.0313-0.0320 kg/ha) of 0.0, a herbicidal effect rating ([8]; 0.0620-0.0630 kg/ha) of 0.0 and a herbicidal effect rating ([8]; 0.1250 kg/ha) of 0.0. It also gave a herbicidal effect rating ([8]; 0.2500 kg/ha) of 0.0, a herbicidal effect rating ([8]; 0.5000 kg/ha) of 2.0 and a herbicidal effect rating ([9]; 0.0156-0.0160 kg/ha) of 0.0. For the same compound, the herbicidal effect rating ([9]; 0.0313-0.0320 kg/ha) was 0.0, the herbicidal effect rating ([9]; 0.0620-0.0630 kg/ha) was 0.0 and the herbicidal effect rating ([9]; 0.1250 kg/ha) was 2.5. For the same compound, the herbicidal effect rating ([9]; 0.2500 kg/ha) was 2.0, the herbicidal effect rating ([9]; 0.5000 kg/ha) was 3.0 and the herbicidal effect rating ([10]; 0.0156-0.0160 kg/ha) was 0.0. For the same compound, the herbicidal effect rating ([10]; 0.0313-0.0320 kg/ha) was 0.0, the herbicidal effect rating ([10]; 0.0620-0.0630 kg/ha) was 0.0 and the herbicidal effect rating ([10]; 0.1250 kg/ha) was 0.0. It also gave a herbicidal effect rating ([11]; 0.0156-0.0160 kg/ha) of 0.0, a herbicidal effect rating ([11]; 0.0313-0.0320 kg/ha) of 0.0 and a herbicidal effect rating ([11]; 0.0620-0.0630 kg/ha) of 0.0. The herbicidal effect rating ([11]; 0.1250 kg/ha) was 0.0, the herbicidal effect rating ([11]; 0.2500 kg/ha) was 0.0 and the herbicidal effect rating ([11]; 0.5000 kg/ha) was 0.0. For the same compound, the herbicidal effect rating ([12]; 0.0156-0.0160 kg/ha) was 0.0, the herbicidal effect rating ([12]; 0.0313-0.0320 kg/ha) was 0.0 and the herbicidal effect rating ([13]; 0.0156-0.0160 kg/ha) was 0.0. It also gave a herbicidal effect rating ([13]; 0.0620-0.0630 kg/ha) of 0.5, a herbicidal effect rating ([13]; 0.1250 kg/ha) of 0.5 and a herbicidal effect rating ([13]; 0.2500 kg/ha) of 3.0. The herbicidal effect rating ([13]; 0.5000 kg/ha) was 3.0, the herbicidal effect rating ([14]; 0.0313-0.0320 kg/ha) was 9.0 and 7.8 and the herbicidal effect rating ([14]; 0.0625-0.0640 kg/ha) was 8.6.
